From US10059704B2, “1,4-disubstituted 1,2,3-triazoles, methods for preparing same, and diagnostic and therapeutic uses thereof” (CENTRE NATIONAL DE LA RECHERCHE SCIENTIFIQUE (C.N.R.S.), priority 2011, dated 2018)

What was measured:
nicotinic receptors Rα7 = nicotinic receptors Rα7 (Rattus norvegicus, UniProt Q05941); assay: biochemical; type: binding
[1] = Solubility (solvents listed in table); details: solvents in which the compound is soluble, in words

nicotinic receptors Rα7, sequence (Q05941 23-502): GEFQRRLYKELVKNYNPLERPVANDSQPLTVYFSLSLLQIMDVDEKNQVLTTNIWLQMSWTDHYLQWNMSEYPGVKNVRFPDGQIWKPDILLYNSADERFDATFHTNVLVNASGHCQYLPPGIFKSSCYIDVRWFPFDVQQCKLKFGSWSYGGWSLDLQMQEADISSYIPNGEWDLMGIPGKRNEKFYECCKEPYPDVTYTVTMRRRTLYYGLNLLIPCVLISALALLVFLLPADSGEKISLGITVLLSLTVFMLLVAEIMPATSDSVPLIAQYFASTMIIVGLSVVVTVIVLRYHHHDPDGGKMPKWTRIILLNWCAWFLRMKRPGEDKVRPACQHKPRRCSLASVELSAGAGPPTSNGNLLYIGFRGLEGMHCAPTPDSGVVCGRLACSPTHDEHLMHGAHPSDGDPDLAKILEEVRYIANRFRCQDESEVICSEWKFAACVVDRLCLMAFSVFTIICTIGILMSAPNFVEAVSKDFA

SMILES	melting point [°C]	Ki (nicotinic receptors Rα7) [nM]	Solubility [1]
CN1[C@@H]2CC[C@H]1C[C@@H](n1cc(-c3ccccc3)nn1)C2 [Compound 16, Endo-3-(4-phenyl-1H-1,2,3-triazol-1-yl)tropane]	135	168 ± 68	M = 268.36 g/mol C16H20N4 CHCl3 − DMSO
CN1[C@@H]2CC[C@H]1C[C@@H](n1cc(-c3ccc(F)cc3)nn1)C2 [Compound 17, Endo-3(4-(4-fluorophenyl)-1H-1,2,3-triazol-1-yl)tropane]	254	210 ± 31	M = 286.35 g/mol C16H19FN4 CHCl3 − DMSO
COc1ccc(-c2cn([C@H]3C[C@H]4CC[C@@H](C3)N4C)nn2)cc1 [Compound 19, Endo-3-(4-(4-methoxyphenyl)-1H-1,2,3-triazol-1-yl)tropane]	118	283 ± 76	M = 298.38 g/mol C17H22N4O CHCl3 − DMSO
CN1[C@@H]2CC[C@H]1C[C@@H](n1cc(-c3cccc(F)c3)nn1)C2 [Compound 22, Endo-3-(4-(3-fluorophenyl)-1H-1,2,3-triazol-1-yl)tropane]	124	16 ± 9	M = 286.35 g/mol C16H19FN4 CHCl3 − DMSO
CN1[C@@H]2CC[C@H]1C[C@@H](n1cc(-c3ccc(Cl)c(Cl)c3)nn1)C2 [Compound 24, Endo-3-(4-(3,4-dichlorophenyl)-1H-1,2,3-triazol-1-yl)tropane]	136	110 ± 36	M = 337.25 g/mol C16H18Cl2N4 CHCl3 − DMSO
CN1[C@@H]2CC[C@H]1C[C@@H](n1cc(-c3ccc4sccc4c3)nn1)C2 [Compound 25, Endo-3-(4-(1-Benzothiophen-5-yl)-1H-1,2,3-triazol-1-yl)tropane]	163	14 ± 4	M = 324.44 g/mol C18H20N4S CHCl3 − DMSO
CN1[C@@H]2CC[C@H]1C[C@@H](n1cc(-c3ccc4occc4c3)nn1)C2 [Compound 26, Endo-3-(4-(1-benzofuran-5-yl)-1H-1,2,3-triazol-1-yl)topane]	104	13 ± 5	M = 308.38 g/mol C18H20N4O CHCl3 − DMSO
CN1[C@@H]2CC[C@H]1C[C@@H](n1cc(-c3ccc(Br)s3)nn1)C2 [Compound 27, Endo-3-(4-(5-bromothiophen-2-yl)-1H-1,2,3-triazol-1-yl)tropane]	138	275 ± 43	M = 353.28 g/mol C14H17BrN4S CHCl3 − DMSO
COc1ccc(-c2cn([C@H]3CN4CCC3CC4)nn2)cc1 [Compound 46, (R)-3-(4-(4-Methoxyphenyl)-1H-1,2,3-triazol-1-yl)quinuclidine]	122		M = 284.36 g/mol C16H20N4O DMSO
OCc1ccc(-c2ccc(-c3cn([C@H]4CN5CCC4CC5)nn3)cc2)s1 [Compound 114, (R)-[5-[4-[1-[quinuclidin-3-yl]-1H-1,2,3-triazol-4-yl]phenyl]-2-thienyl]methanol]	234	160	
OCc1ccc(-c2cccc(-c3cn([C@H]4CN5CCC4CC5)nn3)c2)s1 [Compound 115, (R)-[5-[3-[1-[quinuclidin-3-yl]-1H-1,2,3-triazol-4-yl]phenyl]-2-thienyl]-methanol]	176	0.5	
